Results from patent publication US20240238228A1, “COMPOSITIONS AND METHODS FOR TREATING ALLERGIES AND INFLAMMATORY CONDITIONS” (UNIVERSITY OF PITTSBURGH-OF THE COMMONWEALTH SYSTEM OF …, priority 2021, published 2024).

Experiments:
[1] = tested on: passive cutaneous anaphylaxis (PCA); experiment: Passive cutaneous anaphylaxis (PCA) in mice; assay type: in vivo, mouse; details: glyburide 2.5 mg/kg i.p. 3 h prior to PCA induction
[2] = tested on: sepsis; details: in vivo; cited from earlier work
[3] = tested on: calpain; experiment: Calpain activity in cell-free supernatants of activated PMCs; assay type: cell-based, murine; details: IgE+Ag with or without NKA for 60 min
Procedure: Calpain activity was detected from cell-free supernatants using the Calpain-Glo Protease Assay (Promega). Supernatants were incubated with substrate for 10 min prior to luminescent detection. In some experiments, glyburide or vehicle (0.1% DMSO) were added to cells 10 min prior to Ag. ELISA kits from eBioscience (IL-13), BioLegend, (TNF and IL-10) or RayBiotech (NKA) and used in accord with the manufacturer's recommendations.

[4] = tested on: ABCA1; experiment: Surface ABCA1 expression on activated BMMCs (flow cytometry); assay type: cell-based, murine; details: 30 minutes after IgE-initiated activation; NKA 1000 nM
Procedure: MCs were collected and washed with PBS containing 0.5% BSA and 0.1% sodium azide. Non-specific binding was inhibited using FcBlock (PBS with 2.0% goat serum and 0.25 mg/mL anti-CD16/32 (clone 2.4G2, BD Biosciences). Surface staining was done with anti-CD117 eFluor450 (clone 2B8, ThermoFisher), anti-FcεRI FITC (clone MAR-1, ThermoFisher) and anti-ABCA1 Alexa Fluor 647 (clone 5A1-1422, BioRad). Cells were washed with Wash Buffer (PBS with 0.5% BSA and 0.1% sodium azide). To detect differences in granulated proteins at the cell surface, IgE-loaded MCs were activated with DNP-HSA with or without NKA in Tyrode's Buffer for 30 min, washed with Wash Buffer then stained with Avidin Alexa Fluor488 (Invitrogen, Av488, 0.8 μg/5×10^5 cells) and anti-LAMP-1 PE (clone eBio 1D48, ThermoFisher). Data were acquired on either a LSRII or a Fortessa (BD BioSciences). Analysis was performed with FlowJo v10.4 (BD Biosciences).

[5] = tested on: PMCs; experiment: β-hexosaminidase release from PMCs; assay type: cell-based, murine; details: incubated with NKA or activated with IgE and antigen in the presence of NKA
Procedure: Mast cells (5×10^5-1×10^6) were loaded with IgE ([…]) for a minimum of 3 h in Tyrode's Buffer. Neurokinin A ([…]) was added with DNP-HSA (Sigma, as indicated or 100 ng/mL) for 40 min at 37 C. Cells and supernatants were collected, cell pellets were lysed in Tyrode's Buffer by freeze-thawing then incubated with p-nitrophenyl N-acetyl j-D-glucosaminide (EMB Millipore, 5 mM) dissolved in citrate buffer (0.04 M, pH 4.5) for 90 minutes. The enzymatic reaction was stopped with glycine (0.4 M, pH 10.7). Absorbance at 450 nm was read. The average percentage of b-hexosaminidase release from triplicate values was calculated as (ODsup/ODsup+ODlysate)×100(%).

[6] = tested on: STAT5; experiment: STAT5 phosphorylation (flow cytometry) and nuclear localization (ImageStream) in BMMCs; assay type: cell-based, murine
Procedure: To detect phospho-Stat5Tyr694, MCs were loaded with IgE in serum and cytokine-free RPMI. Neurokinin A (1.0 μM) or vehicle control and DNP-HSA (100 ng/mL) were added simultaneously. At the indicated time, cells were fixed with 2.0% paraformaldehyde for 10 minutes then permeabilized with 90% methanol overnight at −20° C. Cells were stained with monoclonal anti-phospho-Stat5 Tyr694 Alexa Fluor 647 (clone C71E5, Cell Signaling Technology) for 60 minutes at room temperature. Nuclear co-localization was evaluated using ImageStream (Amnis). Activated BMMCs were fixed with 2.0% paraformaldehyde, permeabilized with Permeabilization Wash Buffer containing 3% FBS and 0.1% Triton X-100. and stained with anti-STAT5B Alexa Fluor 488 (clone EPR16671, Abcam) and DAPI. Data were analyzed using the Co-localization Wizard in IDEAS (v6.2). Co-localization for single cells expressing STAT5B and DAPI was quantified as Similarity Score, a log-transformed Pearson's correlation coefficient for the pixel intensity of corresponding images.

Compound | ear thickness at 2 h [1] | levels of IL-13 in the skin ([1]; 24 hours) | levels of TNF in the skin ([1]; 24 hours) | effect in diabetic patients in sepsis [2] | calpain activity in supernatants [3] | ABCA1 detected on the cell surface [4] | β-hexosaminidase release [5] | nuclear translocation of STAT5B (imaging flow cytometry) ([6]; 30 and 60 minutes following IgE crosslinking) | pTyr695-STAT5 detected by flow cytometry ([6]; 15 minutes after crosslinking IgE with Ag, NKA 1.0 μM)
COc1ccc(Cl)cc1C(=O)NCCc1ccc(S(=O)(=O)NC(=O)NC2CCCCC2)cc1 [glyburide, reference compound] | significantly reduced | diminished | diminished | anti-inflammatory and protective |  |  |  |  | 
Neurokinin A [NKA] |  |  |  |  | significantly diminished | reduced the level of ABCA1 | no difference | significantly reduced | reduced
